We go through two compounds from patent US20080153882A1, “Pharmaceutical Composition Comprising Ppar Regulator” (priority 2005, published 2008).

The experiment relates to rat adjuvant arthritis model. The experiment can be described thus: Anti-arthritic action in rat adjuvant arthritis model (footpad volume increase suppression). As to conditions: female Lewis rats, oral once a day, Compound No. 1 0.1 mg/kg, Formula (II) 10.0 mg/kg; for Footpad volume increase suppression ratio (%) After 11 days: right hind leg volume on day 11 after start of administration; for Footpad volume increase suppression ratio (%) After 18 days: right hind leg volume on day 18 after start of administration. In kind it is in vivo. On the procedure:
A rat adjuvant arthritis model developing arthritis that is similar to human rheumatoid arthritis was used, and effect of the pharmaceutical composition according to the present invention with respect to the arthritis was evaluated by using footpad volume increase suppression rate as an indicator. Eight-week old female Lewis rats were used in the experiment.
Heat killed Mycobacterium butyricum was ground in an agate mortar, then suspended in dry heat sterilized liquid paraffin so as to have a concentration of 2 mg/ml, and treated with sonication to prepare an adjuvant.
The test compound was suspended or dissolved in a 0.5% tragacanth solution. As the test compound, the compound of Compound No. 1 described in Table 1 was used as the amino alcohol derivative, and the compound of the formula (II) was used as the PPAR regulator.
0.05 ml of the adjuvant prepared in (1) was injected subcutaneously into the footpad of right hind leg of rats, with respect to a control group and a test compound administration group. Here, 5 rats were used for each group. In addition, a normal control group was provided as a group without injection of the adjuvant.
The test compound prepared in (2) was orally administrated once a day in the amount of 5 ml/kg, […]. The control group was administered with only the 0.5% tragacanth solution in a similar manner.
After the start of administration, on day 11 and day 18, the volume of the right hind leg was measured by a leg volume measuring device, and the mean value of the swelling volume was calculated for each group.
The footpad volume increase suppression ratio (%) was calculated by the following equation, and evaluated.
Footpad volume increase suppression ratio (%)=(1-([footpad volume of test compound administration group]-[footpad volume of normal control group])/[footpad volume of control group]−[footpad volume of normal control group]))×100

`Cn1c(CC[C@@](C)(N)CO)ccc1C(=O)CCCCc1ccccc1` [Compound No. 1]: the “Footpad volume increase suppression ratio (%) After 11 days” value was 43.0% and the “Footpad volume increase suppression ratio (%) After 18 days” value turned out to be 44.8%.
With `COc1ccc2nc(COc3ccc(CC4SC(=O)NC4=O)cc3)n(C)c2c1.Cl` (stereo not shown) [Formula (II), 5-[4-(6-methoxy-1-methyl-1-H-benzimidazol-2-ylmethoxy)benzyl]thiazoline-2,4-dione hydrochloride], the “Footpad volume increase suppression ratio (%) After 11 days” value is reported as 24.7% and the “Footpad volume increase suppression ratio (%) After 18 days” value turned out to be 30.1%.
